From patent US11141475B2, “Inactivating pathogens and producing highly immunogenic inactivated vaccines using a dual oxidation process” (priority 2016, dated 2021)

Key:
DENV4 = format: cell-based, dengue virus serotype 4
[1] = system: DENV4 envelope structural protein; experiment: DENV-specific sandwich ELISA on treated DENV4 (antigenicity); format: binding, dengue virus serotype 4; settings: for DENV4 antigenicity in the dual-oxidation system (ELISA): H2O2 0.01%, CuCl2 1 μM, each compound 10 μM, 20 hrs post-inactivation; for DENV4 antigenicity (retained neutralizing epitopes, ELISA): treated 20 hours at room temperature (FIG. 19B)
[2] = system: CHIKV E1 and E2 structural proteins; experiment: CHIKV-specific sandwich ELISA with two neutralizing monoclonal antibodies (antigenicity); format: binding, Chikungunya virus; settings: for CHIKV antigenicity (retained neutralizing epitopes, ELISA): treated 20 hours at room temperature (FIG. 19A)
DENV2 = DENV2 inactivation kinetics at increasing total viral protein (PFU assay); format: cell-based, dengue virus 2; settings: 3% H2O2, or 0.01% H2O2 and 1 μM CuCl2, room temperature
C. coli [3] = experiment: Campylobacter morphology after inactivation (Gram safranin stain); parameters: species or system Campylobacter coli; settings: 3% H2O2 for 5 hours at room temperature, or dual oxidation
[4] = system: YFV envelope structural protein
smallpox = settings: in vivo; cited from earlier work
C. coli [5] = experiment: Campylobacter coli inactivation kinetics (viable bacteria, CFU/mL); format: cell-based; settings: added to H2O2 0.01%, CuCl2 2 μM; MZ 20 μM
[6] = human, in vivo, 152 mg/kg; cited from earlier work
Shigella dysenteriae = Shigella dysenteriae inactivation (CFU/mL); format: cell-based; settings: added to H2O2 0.10%, CuCl2 10 μM; MZ 100 μM
CHIKV = format: cell-based, Chikungunya virus
vaccinia virus = format: cell-based; settings: added to H2O2 0.002%, CuCl2 1 μM; MZ 10 μM; PBS pH 7.5
Listeria monocytogenes = Listeria monocytogenes inactivation (CFU/mL); format: cell-based; settings: added to H2O2 0.10%, CuCl2 10 μM; MZ 100 μM
[7] = system: DENV3 envelope structural protein; experiment: DENV-specific sandwich ELISA on treated DENV3 (antigenicity); format: binding, dengue virus 3; settings: H2O2 0.01%, range of CuCl2 and FeCl3 concentrations

For `O=C1Nc2ccccc2C1=O` [isatin], the “DENV4 inactivation in the dual-oxidation system (plaque assay)” value (“DENV4 inactivation … (plaque assay)” for short) (DENV4) was “do not appear to increase the rate of inactivation” and the “DENV4 antigenicity in the dual-oxidation system (ELISA)” value (from here on “DENV4 antigenicity … (ELISA)”) [1] was “protection of protein antigens from oxidative damage”.

With `NC(=S)NN=C1C(=O)Nc2ccccc21` [isatin β-thiosemicarbazone] the “DENV4 inactivation … (plaque assay)” value (DENV4) was “enhanced rates of inactivation” and the “DENV4 antigenicity … (ELISA)” value [1] was “superior antigenicity”.

For `OO` [3% H2O2, hydrogen peroxide], the “antigenicity, in vitro potency testing using envelope-specific MAbs” value ([2]; 3% H2O2 under standard conditions (7 hours, room temperature)) was “nearly complete loss of antigenicity”, the “CHIKV antigenicity (retained neutralizing epitopes, ELISA)” value [2] was “loss of neutralizing epitopes” and the “DENV4 antigenicity (retained neutralizing epitopes, ELISA)” value [1] was “loss of neutralizing epitopes”. For the same compound, the “dependence of virus inactivation kinetics on total viral protein concentration” value (DENV2) was “protein concentration-independent”, the “bacterial morphology after inactivation” value (C. coli [3]) was “substantially damaged with clear changes in morphology” and the “YFV antigenicity (neutralizing epitopes)” value [4] was “severe damage to neutralizing epitopes”.

For `NNC(N)=S` [thiosemicarbazide], the “DENV4 inactivation … (plaque assay)” value (DENV4) was “enhancement of inactivation” and the “DENV4 antigenicity … (ELISA)” value [1] was “superior antigenicity”.

For `NNC(N)=O` [semicarbazide], the “DENV4 inactivation … (plaque assay)” value (DENV4) was “do not appear to increase the rate of inactivation” and the “DENV4 antigenicity … (ELISA)” value [1] was “protection of protein antigens from oxidative damage”.

For `CCCN1C(=O)C(=NNC(N)=S)c2ccccc21` [N-propylisatin β-thiosemicarbazone], the “DENV4 inactivation … (plaque assay)” value (DENV4) was “enhanced rates of inactivation” and the “DENV4 antigenicity … (ELISA)” value [1] was “superior antigenicity”.

For `CN1C(=O)/C(=N\NC(N)=S)c2ccccc21` [methisazone, N-methylisatin β-thiosemicarbazone], the “CHIKV retained antigenicity with increasing methisazone relative to the transition metal” value ([2]; H2O2 0.02%, CuCl2 1 μM, ELISA at 20 hrs) is listed as “concomitant improvements”, the “CHIKV antigenicity (retained neutralizing epitopes, ELISA)” value [2] is listed as “maintained or significantly improved antigenicity” and the “close contacts who developed mild smallpox” value (smallpox) is listed as 0.27%. For the same compound, the “close contacts who developed mild smallpox (cases/contacts)” value (smallpox) was 3/1101, the “deaths among close contacts” value (smallpox) was “no deaths” and the “non-vaccinated subjects who contracted smallpox” value (smallpox) was 2%. For the same compound, the “non-vaccinated subjects who contracted smallpox (cases/subjects)” value (smallpox) was 2/102, the “inactivation rate of Campylobacter coli” value (C. coli [5]) was “substantially enhanced inactivation rates” and the serious adverse events [6] was “lack of serious adverse events”. The “inactivation rate of Shigella dysenteriae” value (Shigella dysenteriae) was “substantially enhanced inactivation rates”, the “CHIKV inactivation in the absence of copper” value (CHIKV) was “minimal impact” and the “CHIKV inactivation rates with increasing methisazone relative to the transition metal” value (CHIKV) was “concomitant improvements”. The “increase of the rate of inactivation vs dual oxidation alone, CHIKV” value (CHIKV) was 10- to 20 fold, the “rate of dual-oxidation-based inactivation, CHIKV” value (CHIKV) was “substantially increase the rate” and the “DENV4 inactivation in the absence of copper” value (DENV4) was “minimal impact”. The “increase of the rate of inactivation vs dual oxidation alone, DENV4” value (DENV4) was 10- to 20 fold, the “rate of dual-oxidation-based inactivation, DENV4” value (DENV4) was “substantially increase the rate” and the “DENV4 antigenicity (retained neutralizing epitopes, ELISA)” value [1] was “maintained or significantly improved antigenicity”. The “rate of dual-oxidation-based inactivation, vaccinia virus” value (vaccinia virus) was “substantially increase the rate” and the “inactivation rate of Listeria monocytogenes” value (Listeria monocytogenes) was “substantially enhanced inactivation rates”.

In the case of `[Cl][Fe]([Cl])[Cl]` [FeCl3], the “DENV3 antigenicity with combinations of CuCl2 and FeCl3 (ELISA)” value [7] is reported as “enhanced antigenicity”.
